# Values quoted from earlier work as cited in patent US11111202B2, “Production of salts of 4-hydroxybutyrate using biobased raw materials” (CJ Cheiljedang Corporation, priority 2012, dated 2021).
# Columns and labels:
# [1] = or even longer if large doses have been consumed
# [2] = after oral administration
structure (smiles),measurement,setting,value
"O=C(O)CCCO [GHB, γ-Hydroxybutyric acid]",duration of the effects of GHB,[1],1.5 to 3 h
same,time of peak plasma concentration,[2],20 to 60 min
